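1) Cells in 96-well plates. 2) Compound, 48 h, 5 concentrations. 3) Linear interpolation between surrounding doses. 4) Unreached endpoint = highest concentration. GI50 = concentration required for 50% inhibition of growth.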 Calls of active or inactive are those of the source. Rule as the data show it: active = GI50 up to about 1.1 µM and inactive = higher.
Key:
Test in all cases: inhibition of tumour cell growth, NCI panel, 48 h
HCT-15 = system: HCT-15
OVCAR-5 = system: OVCAR-5
MDA-MB-435 = system: MDA-MB-435
EKVX = system: EKVX
SNB-19 = system: SNB-19
CAKI-1 = system: CAKI-1
MDA-N = system: MDA-N
OVCAR-4 = system: OVCAR-4
SF-268 = system: SF-268
UACC-257 = system: UACC-257
PC-3 = system: PC-3
HOP-62 = system: HOP-62
HCC 2998 = system: HCC 2998
OVCAR-3 = system: OVCAR-3
SNB-75 = system: SNB-75
NCI-H226 = system: NCI-H226
NCI-H23 = system: NCI-H23
ACHN = system: ACHN
SN12C = system: SN12C
SF-539 = system: SF-539

SMILES	GI50 (HCT-15) [µM]	GI50 (OVCAR-5)	GI50 (MDA-MB-435)	GI50 (EKVX)	GI50 (SNB-19)	GI50 (CAKI-1)	GI50 (MDA-N)	GI50 (OVCAR-4)	GI50 (SF-268)	GI50 (UACC-257)	GI50 (PC-3)	GI50 (HOP-62)	GI50 (HCC 2998)	GI50 (OVCAR-3)	GI50 (SNB-75)	GI50 (NCI-H226)	GI50 (NCI-H23)	GI50 (ACHN)	GI50 (SN12C)	GI50 (SF-539)
CC(=O)Oc1ccc2c3c1[C@@H]1O[C@@H]1c1cccc(c1-3)[C@@H]1O[C@H]21	1.66	1.86 µM (inactive)	1.14 µM (inactive)	2.02 µM (inactive)	3.01 µM (inactive)	1.59 µM (inactive)	1.84 µM (inactive)	2.03 µM (inactive)	2.11 µM (inactive)	2.43 µM (inactive)	2.33 µM (inactive)	2.01 µM (inactive)	2 µM (inactive)	2 µM (inactive)	1.63 µM (inactive)	18.2 µM (inactive)	1.63 µM (inactive)	1.84 µM (inactive)	1.6 µM (inactive)	–
O=C(NC(Cc1c[nH]cn1)C(=O)N1CCCC1)C1CCCC1 (configuration not stated)	> 100	> 100 µM (inactive)	> 100 µM (inactive)	> 100 µM (inactive)	> 100 µM (inactive)	> 100 µM (inactive)	> 100 µM (inactive)	> 100 µM (inactive)	–	–	> 100 µM (inactive)	> 100 µM (inactive)	> 100 µM (inactive)	> 100 µM (inactive)	> 100 µM (inactive)	> 100 µM (inactive)	> 100 µM (inactive)	> 100 µM (inactive)	> 100 µM (inactive)	–
O=C(COc1ccc(OCC(=O)N2C(=O)CC(=O)N(c3ccc(Cl)cc3)C2=S)cc1)N1C(=O)CC(=O)N(c2ccc(Cl)cc2)C1=S	24.3	12.9 µM (inactive)	32 µM (inactive)	42.2 µM (inactive)	26.9 µM (inactive)	–	28.1 µM (inactive)	33.6 µM (inactive)	40.4 µM (inactive)	36.1 µM (inactive)	29.3 µM (inactive)	–	28.5 µM (inactive)	–	72.9 µM (inactive)	26.6 µM (inactive)	25.8 µM (inactive)	27.4 µM (inactive)	42 µM (inactive)	–
Cc1ccc(S(=O)(=O)Nc2ccccc2C(=O)c2ccc(C)c(C)c2)cc1	> 100	> 100 µM (inactive)	41.9 µM (inactive)	> 100 µM (inactive)	> 100 µM (inactive)	> 100 µM (inactive)	74.3 µM (inactive)	> 100 µM (inactive)	> 100 µM (inactive)	53.1 µM (inactive)	> 100 µM (inactive)	> 100 µM (inactive)	–	83.9 µM (inactive)	> 100 µM (inactive)	> 100 µM (inactive)	> 100 µM (inactive)	55.2 µM (inactive)	> 100 µM (inactive)	> 100 µM (inactive)
Oc1ccc(O)c(CNc2ccc(C(O)C(F)(F)F)cc2)c1 (configuration not stated)	13.7	20.5 µM (inactive)	11.9 µM (inactive)	14.5 µM (inactive)	44.9 µM (inactive)	16 µM (inactive)	9.86 µM (inactive)	16.3 µM (inactive)	22.2 µM (inactive)	18.4 µM (inactive)	16.3 µM (inactive)	15.6 µM (inactive)	–	3.98 µM (inactive)	12.2 µM (inactive)	18.4 µM (inactive)	21.4 µM (inactive)	13.7 µM (inactive)	18.1 µM (inactive)	4.85 µM (inactive)
c1ccc2sc(SSSc3nc4ccccc4s3)nc2c1	27.7	> 100 µM (inactive)	> 100 µM (inactive)	> 100 µM (inactive)	> 100 µM (inactive)	> 100 µM (inactive)	> 100 µM (inactive)	> 100 µM (inactive)	> 100 µM (inactive)	49.8 µM (inactive)	> 100 µM (inactive)	> 100 µM (inactive)	> 100 µM (inactive)	–	> 100 µM (inactive)	> 100 µM (inactive)	> 100 µM (inactive)	> 100 µM (inactive)	> 100 µM (inactive)	–
COC(=O)Cc1c(C(=O)CC(C)(C)n2cnc(CCN3C(=O)CCC3=O)c2)[nH]c2ccccc12	> 100	> 100 µM (inactive)	> 100 µM (inactive)	> 100 µM (inactive)	> 100 µM (inactive)	> 100 µM (inactive)	> 100 µM (inactive)	> 100 µM (inactive)	> 100 µM (inactive)	> 100 µM (inactive)	> 100 µM (inactive)	–	–	> 100 µM (inactive)	27 µM (inactive)	> 100 µM (inactive)	> 100 µM (inactive)	> 100 µM (inactive)	> 100 µM (inactive)	> 100 µM (inactive)
O=C(/N=C1/NCC(CN2CCN(c3ccccc3)CC2)O1)Nc1ccccc1 (configuration not stated)	> 100	> 100 µM (inactive)	> 100 µM (inactive)	> 100 µM (inactive)	> 100 µM (inactive)	> 100 µM (inactive)	> 100 µM (inactive)	> 100 µM (inactive)	> 100 µM (inactive)	> 100 µM (inactive)	> 100 µM (inactive)	> 100 µM (inactive)	> 100 µM (inactive)	–	–	> 100 µM (inactive)	> 100 µM (inactive)	> 100 µM (inactive)	> 100 µM (inactive)	–
Nc1n[n+]([O-])c2cc([N+](=O)[O-])ccc2[n+]1[O-]	3.14	21.2 µM (inactive)	1.75 µM (inactive)	> 10 µM (inactive)	13.6 µM (inactive)	4.33 µM (inactive)	2.07 µM (inactive)	3.43 µM (inactive)	–	13.3 µM (inactive)	2.19 µM (inactive)	6.81 µM (inactive)	–	1.93 µM (inactive)	26.7 µM (inactive)	15.5 µM (inactive)	13.8 µM (inactive)	3.35 µM (inactive)	5.14 µM (inactive)	4.74 µM (inactive)
Cc1ccc(S(=O)(=O)OC2C(C3COC(C)(C)O3)OC3OC(C)(C)OC32)cc1 (configuration not stated)	> 100	> 100 µM (inactive)	> 100 µM (inactive)	> 100 µM (inactive)	> 100 µM (inactive)	> 100 µM (inactive)	> 100 µM (inactive)	> 100 µM (inactive)	> 100 µM (inactive)	> 100 µM (inactive)	> 100 µM (inactive)	> 100 µM (inactive)	> 100 µM (inactive)	> 100 µM (inactive)	> 100 µM (inactive)	> 100 µM (inactive)	> 100 µM (inactive)	> 100 µM (inactive)	> 100 µM (inactive)	–
C=C1C2C[C@@H]3O[C@H]4C[C@H]5O[C@@]6(C[C@@H]7O[C@]8(C[C@H](C)[C@@H]9O[C@@H]%10CC(C=O)O[C@@H]%10C[C@@H]9O8)C[C@H](C)[C@@H]7O6)C[C@H]5O[C@H]4[C@H](C)[C@H]3OC(=O)C[C@H]3CC[C@@H]4OC5[C@H]6O[C@]7(CC[C@H]8CC(=C)[C@H](CC[C@@H](C[C@H]1C)O2)O8)CC6O[C@@H]5[C@@H](O7)[C@H]4O3 (some centres not stated)	< 0.0001	–	< 0.0001 µM (active)	< 0.0001 µM (active)	0.000104 µM (active)	< 0.0001 µM (active)	< 0.0001 µM (active)	–	< 0.0001 µM (active)	< 0.01 µM (active)	< 0.0001 µM (active)	< 0.0001 µM (active)	< 0.0001 µM (active)	< 0.0001 µM (active)	< 0.0001 µM (active)	< 0.0001 µM (active)	< 0.0001 µM (active)	< 0.0001 µM (active)	0.000179 µM (active)	–
